Activity calls are given as the source filed them. The calls are words filed in the database; no cut-off is given here.
Assays:
[1] = target: Peptidyl-prolyl cis-trans isomerase NIMA-interacting 1 (Homo sapiens, UniProt Q13526, S16A/Y23A); experiment: Binding affinity to N-terminal MBP fused and Texas-red-labeled full-length human Pin1 S16A/Y23A mutant expressed in Escherichia coli assessed as increase in fluorescence anisotropy by spectrofluorimetry
HeLa [2] = experiment: Antiproliferative activity against human HeLa cells assessed as reduction in cell growth incubated for 72 hrs by MTT assay; type: functional, cell-based; settings: hela
HeLa [3] = experiment: Drug uptake in human HeLa cells assessed as mean fluorescence intensity at 5 uM using FITC-labeled compound incubated for 2 hrs by flow cytometry (reference value: 86); type: ADME, cell-based
[4] = target: Peptidyl-prolyl cis-trans isomerase NIMA-interacting 1 (Homo sapiens) (UniProt Q13526); experiment: Inhibition of Pin1 in human HeLa cells assessed as increase in PML protein levels at 0.2 to 5 uM incubated for 2 hrs by Western blotting method relative to untreated control; type: cell-based
HeLa [5] = experiment: Growth inhibition of human HeLa cells at 5 uM incubated for 3 days by MTT assay; type: functional
[6] = system: Peptidyl-prolyl cis-trans isomerase NIMA-interacting 1 (Homo sapiens), Q13526 [S16A,Y23A]; experiment: Binding affinity to N-terminal MBP fused and Texas-red-labeled full-length human Pin1 S16A/Y23A mutant expressed in Escherichia coli assessed as increase in fluorescence anisotropy at 5 uM by spectrofluorimetry

SMILES | Kd ([1]; read-out: Kd) [nM] | Activity [6] [%] | other results
C[C@@H]1NC(=O)[C@H](CCCNC(=N)N)NC(=O)[C@H](Cc2ccc3ccccc3c2)NC(=O)[C@@H](C)NC(=O)[C@@H]([C@H](C)O)NC(=O)CN(C)C(=O)[C@@H](C)NC(=O)c2cc3cc(c2)C(=O)NC[C@H](NC(=O)[C@@H](C)NC1=O)C(=O)N[C@@H](Cc1ccccc1)C(=O)N[C@@H](Cc1ccc2ccccc2c1)C(=O)N[C@@H](CCCNC(=N)N)C(=O)N[C@@H](CCCNC(=N)N)C(=O)N[C@@H](CCCNC(=N)N)C(=O)N[C@@H](CCCNC(=N)N)C(=O)N[C@H](C(=O)N[C@@H](CCCCN)C(=O)O)CNC3=O | – | – | Kd [1]: Not Active; IC50 (HeLa [2]): Not Active; Flu intensity (HeLa [3]): 8730; inhibition [4]: inactive; growth inhibition (GI) (HeLa [5]): inactive
CC[C@H](C)[C@@H]1NC(=O)[C@H](Cc2ccccc2)N(C)C(=O)c2cc3cc(c2)C(=O)NC[C@H](NC(=O)[C@@H](C)NC(=O)[C@H](C)NC(=O)[C@H](CCCNC(=N)N)NC(=O)[C@H](Cc2ccc4ccccc4c2)NC(=O)[C@H]2CCCCN2C(=O)[C@@H](CCC(=O)O)NC1=O)C(=O)N[C@@H](Cc1ccccc1)C(=O)N[C@@H](Cc1ccc2ccccc2c1)C(=O)N[C@@H](CCCNC(=N)N)C(=O)N[C@@H](CCCNC(=N)N)C(=O)N[C@@H](CCCNC(=N)N)C(=O)N[C@@H](CCCNC(=N)N)C(=O)N[C@H](C(=O)N[C@@H](CCCCN)C(=O)O)CNC3=O | 1250 | > 50 | –
C[C@H](OP(=O)(O)O)[C@H]1NC(=O)CN(C)C(=O)[C@@H](C)NC(=O)[C@H](CCCCN)NC(=O)[C@H](Cc2ccc(O)cc2)NC(=O)[C@H](Cc2ccc3ccccc3c2)NC(=O)[C@H]2CCCCN2C1=O | 240 | – | IC50 (HeLa [2]): Not Active; Flu intensity (HeLa [3]): 193; growth inhibition (GI) (HeLa [5]): inactive
C[C@@H]1NC(=O)[C@H](CCCNC(=N)N)NC(=O)[C@H](Cc2ccc3ccccc3c2)NC(=O)[C@H]2CCCCN2C(=O)[C@@H]([C@H](C)O)NC(=O)[C@H](c2ccccc2)NC(=O)[C@H](Cc2cnc[nH]2)NC(=O)c2cc3cc(c2)C(=O)NC[C@H](NC(=O)[C@@H](C)NC1=O)C(=O)N[C@@H](Cc1ccccc1)C(=O)N[C@@H](Cc1ccc2ccccc2c1)C(=O)N[C@@H](CCCNC(=N)N)C(=O)N[C@@H](CCCNC(=N)N)C(=O)N[C@@H](CCCNC(=N)N)C(=O)N[C@@H](CCCNC(=N)N)C(=O)N[C@H](C(=O)N[C@@H](CCCCN)C(=O)O)CNC3=O | 1400 | > 50 | –
C[C@@H]1NC(=O)[C@H](CCCNC(=N)N)NC(=O)[C@H](Cc2ccc3ccccc3c2)NC(=O)[C@H]2CCCCN2C(=O)[C@@H](CCC(=O)O)NC(=O)[C@H](Cc2cnc[nH]2)NC(=O)[C@H](c2ccccc2)NC(=O)c2cc3cc(c2)C(=O)NC[C@H](NC(=O)[C@@H](C)NC1=O)C(=O)N[C@@H](Cc1ccccc1)C(=O)N[C@@H](Cc1ccc2ccccc2c1)C(=O)N[C@@H](CCCNC(=N)N)C(=O)N[C@@H](CCCNC(=N)N)C(=O)N[C@@H](CCCNC(=N)N)C(=O)N[C@@H](CCCNC(=N)N)C(=O)N[C@H](C(=O)N[C@@H](CCCCN)C(=O)O)CNC3=O | 1470 | > 50 | –
CC(C)[C@@H]1NC(=O)[C@H](CCCNC(=N)N)NC(=O)[C@H](Cc2ccc3ccccc3c2)NC(=O)[C@H]2CCCCN2C(=O)[C@@H](CC(=O)O)NC(=O)CN(C)C(=O)[C@@H]2CCCN2C(=O)c2cc3cc(c2)C(=O)NC[C@H](NC(=O)[C@@H](C)NC1=O)C(=O)N[C@@H](Cc1ccccc1)C(=O)N[C@@H](Cc1ccc2ccccc2c1)C(=O)N[C@@H](CCCNC(=N)N)C(=O)N[C@@H](CCCNC(=N)N)C(=O)N[C@@H](CCCNC(=N)N)C(=O)N[C@@H](CCCNC(=N)N)C(=O)N[C@H](C(=O)N[C@@H](CCCCN)C(=O)O)CNC3=O | 1750 | – | –
C[C@@H]1NC(=O)[C@H](CCCNC(=N)N)NC(=O)[C@H](Cc2ccc3ccccc3c2)NC(=O)[C@H]2CCCCN2C(=O)[C@@H]([C@H](C)O)NC(=O)CNC(=O)[C@H](Cc2ccccc2)N(C)C(=O)c2cc3cc(c2)C(=O)NC[C@H](NC(=O)[C@@H](C)NC1=O)C(=O)N[C@@H](Cc1ccccc1)C(=O)N[C@@H](Cc1ccc2ccccc2c1)C(=O)N[C@@H](CCCNC(=N)N)C(=O)N[C@@H](CCCNC(=N)N)C(=O)N[C@@H](CCCNC(=N)N)C(=O)N[C@@H](CCCNC(=N)N)C(=O)N[C@H](C(=O)N[C@@H](CCCCN)C(=O)O)CNC3=O | 1080 | > 50 | –
C[C@@H]1NC(=O)[C@H](CCCNC(=N)N)NC(=O)[C@H](Cc2ccc3ccccc3c2)NC(=O)[C@H]2CCCCN2C(=O)[C@@H](CC(=O)O)NC(=O)CN(C)C(=O)[C@@H]2CCCN2C(=O)c2cc3cc(c2)C(=O)NC[C@@H](C(=O)N[C@@H](CCCCN)C(=O)O)NC(=O)[C@H](CCCNC(=N)N)NC(=O)[C@H](CCCNC(=N)N)NC(=O)[C@H](CCCNC(=N)N)NC(=O)[C@H](CCCNC(=N)N)NC(=O)[C@H](Cc2ccc4ccccc4c2)NC(=O)[C@H](Cc2ccccc2)NC(=O)[C@H](CNC3=O)NC1=O | 2590 | – | –
